Test results from US20240423995A1, “C-KIT INHIBITORS AND USES FOR TREATING AND PREVENTING INFLAMMATORY CONDITIONS” (GEORGETOWN UNIVERSITY, priority 2023, published 2024).

How the values were obtained:
KIT (A829P) = biological target: T1, KIT (A829P) (Homo sapiens, UniProt P10721, A829P); experiment: KINOMEscan competition binding screen, KIT (A829P); conditions: for remaining binding at 10 µM: read-out: % Ctrl @ 10 μM
T1 construct: purchased Eurofins DiscoverX Corporation
Method: (§1) The KINOMEscan™ screening platform (Eurofins DiscoverX Corporation, San Diego, USA) was performed using an active site-directed competition binding assay to quantitatively measure interactions between BK40143, BK40197, BK40195, and BK40196 and more than 450 human kinases and disease relevant mutant variants. […] Screening “hits” were identified by measuring the amount of kinase captured in test (BK40143, BK40197, BK40195, and BK40196) versus control samples by using a quantitative and ultra-sensitive qPCR method that detects the associated DNA label. BK40143, BK40197, BK40195, and BK40196 were screened at 10 μM concentration, and results for primary screen binding interactions were reported as ‘% Ctrl’ (POC), where lower numbers indicate stronger hits and calculated as follows:
(§2) [formula] • test compound=BK40143 or BK40197 or BK40195 or BK40196 • negative control=DMSO (100% Ctrl) • positive control=control compound (0% Ctrl)
(§3) Based on screening data of profiled compounds, a proportional relationship between primary screening results and corresponding compound/target affinities can be described as binding constants (Kd values) for the indicated ranges of percent of control (PoC) values, with tighter binding (higher affinity) interactions associated with lower PoC values, and weaker binding (lower affinity) associated with higher PoC values. Briefly, kinase-tagged T7 phage strains were grown in parallel in 24-well blocks in an E. coli host derived from the BL21 strain. E. coli were grown to log-phase and infected with T7 phage from a frozen stock (multiplicity of infection=0.4) and incubated with shaking at 32° C. until lysis (90-150 minutes). The lysates were centrifuged (6,000×g) and filtered ([…]) to remove cell debris. The remaining kinases were produced in HEK-293 cells and subsequently tagged with DNA for qPCR detection. Streptavidin-coated magnetic beads were treated with biotinylated small molecule ligands for 30 minutes at room temperature to generate affinity resins for kinase assays. The liganded beads were blocked with excess biotin and washed with blocking buffer (SeaBlock (Pierce), 1% BSA, 0.05% Tween 20, 1 mM DTT) to remove unbound ligand and to reduce non-specific phage binding. Binding reactions were assembled by combining kinases, liganded affinity beads, and test compounds in 1× binding buffer (20% SeaBlock, 0.17×PBS, 0.05% Tween 20, 6 mM DTT). Test compounds were prepared as 100× stocks in 100% DMSO and directly diluted into the assay. All reactions were performed in polypropylene 384-well plates in a final volume of 0.02 ml. The assay plates were incubated at room temperature with shaking for 1 hour and the affinity beads were washed with wash buffer (1×PBS, 0.05% Tween 20). The beads were then re-suspended in elution buffer (1×PBS, 0.05% Tween 20, 0.5 μM non-biotinylated affinity ligand) and incubated at room temperature with shaking for 30 minutes. The kinase concentration in the eluates was measured by qPCR.

KIT (D816V) = biological target: T2, KIT (D816V) (Homo sapiens, UniProt P10721, D816V); experiment: KINOMEscan competition binding screen, KIT (D816V); conditions: for remaining binding at 10 µM: read-out: % Ctrl @ 10 μM
T2 construct: purchased Eurofins DiscoverX Corporation
T2 sequence (P10721 26-976 D816V): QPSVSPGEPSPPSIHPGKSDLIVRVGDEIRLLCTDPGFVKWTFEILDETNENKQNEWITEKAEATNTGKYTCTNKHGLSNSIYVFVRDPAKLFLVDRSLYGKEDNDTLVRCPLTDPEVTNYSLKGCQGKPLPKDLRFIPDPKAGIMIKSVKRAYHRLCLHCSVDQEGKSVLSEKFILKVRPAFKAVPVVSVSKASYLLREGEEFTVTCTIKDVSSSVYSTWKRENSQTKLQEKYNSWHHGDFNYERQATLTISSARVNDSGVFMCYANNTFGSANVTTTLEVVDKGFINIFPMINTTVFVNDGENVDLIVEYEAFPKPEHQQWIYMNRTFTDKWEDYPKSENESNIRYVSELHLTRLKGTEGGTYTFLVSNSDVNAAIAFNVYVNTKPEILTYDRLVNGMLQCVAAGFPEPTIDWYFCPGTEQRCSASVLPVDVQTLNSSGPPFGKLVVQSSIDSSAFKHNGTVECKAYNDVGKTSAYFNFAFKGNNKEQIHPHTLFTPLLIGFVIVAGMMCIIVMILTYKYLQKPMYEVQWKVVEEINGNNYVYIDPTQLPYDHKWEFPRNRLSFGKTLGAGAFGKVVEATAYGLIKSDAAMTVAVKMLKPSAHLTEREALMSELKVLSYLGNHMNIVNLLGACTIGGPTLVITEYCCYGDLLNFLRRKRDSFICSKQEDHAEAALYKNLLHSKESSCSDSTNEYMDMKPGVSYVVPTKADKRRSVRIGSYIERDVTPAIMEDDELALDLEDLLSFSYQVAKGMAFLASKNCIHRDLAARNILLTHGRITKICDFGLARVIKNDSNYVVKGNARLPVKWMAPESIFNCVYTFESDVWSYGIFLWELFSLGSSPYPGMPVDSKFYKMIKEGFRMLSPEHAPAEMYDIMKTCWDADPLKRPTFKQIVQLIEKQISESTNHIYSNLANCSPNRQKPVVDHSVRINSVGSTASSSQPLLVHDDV
Method: as §1, §2, §3

KIT (L576P) = biological target: T3, KIT (L576P) (Homo sapiens, UniProt P10721, L576P); experiment: KINOMEscan competition binding screen, KIT (L576P); conditions: for remaining binding at 10 µM: read-out: % Ctrl @ 10 μM
T3 construct: purchased Eurofins DiscoverX Corporation
T3 sequence (P10721 26-976 L576P): as the sequence (P10721 26-976 D816V) above, with L551P, V791D counted along it
Method: as §1, §2, §3

KIT (V559D) = biological target: T4, KIT (V559D) (Homo sapiens, UniProt P10721, V559D); experiment: KINOMEscan competition binding screen, KIT (V559D); conditions: for remaining binding at 10 µM: read-out: % Ctrl @ 10 μM
T4 construct: purchased Eurofins DiscoverX Corporation
T4 sequence (P10721 26-976 V559D): as the sequence (P10721 26-976 D816V) above, with V534D, V791D counted along it
Method: as §1, §2, §3

SRC = biological target: T5, SRC (Homo sapiens, UniProt P12931); experiment: KINOMEscan competition binding screen, SRC; conditions: for remaining binding at 10 µM: read-out: % Ctrl @ 10 μM
T5 construct: purchased Eurofins DiscoverX Corporation
T5 sequence (P12931 whole entry): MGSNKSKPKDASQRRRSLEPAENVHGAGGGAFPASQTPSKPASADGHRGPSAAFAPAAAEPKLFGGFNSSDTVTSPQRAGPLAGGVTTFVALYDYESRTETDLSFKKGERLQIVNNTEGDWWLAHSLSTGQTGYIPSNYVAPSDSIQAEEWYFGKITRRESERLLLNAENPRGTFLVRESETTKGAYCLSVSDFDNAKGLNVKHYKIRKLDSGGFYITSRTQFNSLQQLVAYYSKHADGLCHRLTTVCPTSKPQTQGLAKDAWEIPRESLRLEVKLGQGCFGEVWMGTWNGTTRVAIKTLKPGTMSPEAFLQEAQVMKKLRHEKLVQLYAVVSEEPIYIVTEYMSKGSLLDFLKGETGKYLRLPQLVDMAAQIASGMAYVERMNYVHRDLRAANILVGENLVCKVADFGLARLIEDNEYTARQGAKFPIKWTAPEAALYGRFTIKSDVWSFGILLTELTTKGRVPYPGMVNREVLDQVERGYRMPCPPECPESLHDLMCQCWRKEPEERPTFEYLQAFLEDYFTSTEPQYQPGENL
Method: as §1, §2, §3

FYN = biological target: T6, FYN (Homo sapiens, UniProt P06241); experiment: KINOMEscan competition binding screen, FYN; conditions: for remaining binding at 10 µM: read-out: % Ctrl @ 10 μM
T6 construct: purchased Eurofins DiscoverX Corporation
T6 sequence (P06241 whole entry): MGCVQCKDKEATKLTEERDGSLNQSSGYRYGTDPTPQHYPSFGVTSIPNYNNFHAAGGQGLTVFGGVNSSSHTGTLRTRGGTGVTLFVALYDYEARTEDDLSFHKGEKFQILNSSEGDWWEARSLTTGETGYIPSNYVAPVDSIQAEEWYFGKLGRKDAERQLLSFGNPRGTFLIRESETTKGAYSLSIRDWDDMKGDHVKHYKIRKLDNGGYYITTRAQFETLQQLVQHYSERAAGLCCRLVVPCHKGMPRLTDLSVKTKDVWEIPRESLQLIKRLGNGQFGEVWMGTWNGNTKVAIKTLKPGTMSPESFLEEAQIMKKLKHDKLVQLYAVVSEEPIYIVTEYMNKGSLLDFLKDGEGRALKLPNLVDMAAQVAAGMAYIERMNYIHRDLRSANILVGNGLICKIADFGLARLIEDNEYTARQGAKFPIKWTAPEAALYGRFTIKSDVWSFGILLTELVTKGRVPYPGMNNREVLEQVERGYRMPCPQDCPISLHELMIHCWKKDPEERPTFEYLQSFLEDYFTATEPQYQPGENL
Method: as §1, §2, §3

LUVA cells = experiment: MC maturation in LUVA cells by flow cytometry (CD117, FceR1); format: cell-based, human; conditions: 100 ng/mL SCF overnight, then 10 nM, 100 nM, 1 μM compound for 48 hours, vs DMSO
Method: A human mast cell (MC) line that arose spontaneously from a culture of non-transformed hematopoietic progenitor cells is described in J Allergy Clin Immunol, 2011, 127:815-22, which is incorporated herein by reference. The cells, termed LUVA cells, are an immortalized human MC line that can be maintained without stem cell factor (SCF) and that display high levels of normally signaling c-kit and FceR1.
The LUVA cells (Kerafast, EG1701-FP) were cultured in StemPro-34 serum-free media with 10% nutrient supplement, 1% L-glutamine, and 1% pen/strep and grown under normal atmospheric conditions (5% CO2). The cells were plated and treated with 100 ng/mL of SCF overnight and then treated with DMSO or an ascending dose of either BK40143, BK40196, or BK40197 for 48 hours, before collection and incubation with two flow-conjugated antibodies (PE anti-mouse CD117 (c-kit) and APC/fire 750 anti-mouse FceR1a) and subsequent analysis via flow cytometry. Group differences were compared using unpaired Student's t-tests.

mast cells (blood) = experiment: MC maturation in blood of transgenic APP mice by flow cytometry; format: in vivo; conditions: six weeks, vs DMSO
Method: 12-month-old transgenic APP mice were injected intraperitoneally with either 5 mg/kg BK40143 or DMSO for six weeks before whole-blood samples were collected into tubes with 1000 U/mL heparin. Blood samples were then treated with the three flow-conjugated antibodies and analyzed for maturation of mast cell progenitors to mature mast cells, as described in Examples 3 and 4. Group differences were compared using an unpaired Student's t-test.
(§4) 12-month-old transgenic APP mice were injected intraperitoneally with either 25 mg/kg BK40195 or DMSO for six weeks before having whole-blood samples collected into tubes containing 1000 U/mL heparin. Blood samples were then treated with the three flow-conjugated antibodies and analyzed for maturation of mast cell progenitors to mature mast cells, as described in Example 5. Differences were compared using an unpaired Student's t-test.
as §4, with “45” for “25”, “BK40197” for “BK40195”

T1 sequence (P10721 26-976 A829P): as the sequence (P10721 26-976 D816V) above, with V791D, A804P counted along it

inhibition at 10 µM (KIT (A829P))	remaining binding at 10 µM (KIT (A829P))	inhibition at 10 µM (KIT (D816V))	remaining binding at 10 µM (KIT (D816V))	inhibition at 10 µM (KIT (L576P))	remaining binding at 10 µM (KIT (L576P))	inhibition at 10 µM (KIT (V559D))	remaining binding at 10 µM (KIT (V559D))	inhibition at 10 µM (SRC)	remaining binding at 10 µM (SRC)	inhibition at 10 µM (FYN)	remaining binding at 10 µM (FYN)	Structure (SMILES)	number of immature MCs (CD117 only) compared to mature MCs (CD117 and FceR1) (LUVA cells)	ratio of immature MCs (CD117 only) to mature MCs (CD117 and FceR1) (mast cells (blood); 5 mg/kg intraperitoneal, p=0.03)	ratio of immature MCs (CD117 only) to mature MCs (CD117 and FceR1) (mast cells (blood); 25 mg/kg intraperitoneal, p=0.04)	ratio of immature MCs (CD117 only) to mature MCs (CD117 and FceR1) (mast cells (blood); 45 mg/kg intraperitoneal, p=0.07)
48%	52%	65%	35%	96.5%	3.5%	99.8%	0.25%	94.7%	5.3%	90%	10%	Cc1cccc(-c2cc3nccc(Nc4ccccc4)c3s2)c1 [BK40143]	significantly increased	significantly increased	–	–
93.7%	6.3%	98.3%	1.7%	91.9%	8.1%	99.8%	0.2%	99.7%	0.35%	97.6%	2.4%	COc1cccc(Nc2ccnc3cc(-c4cccc(C)c4)sc23)c1 [BK40195]	–	–	significantly increased	–
79%	21%	99.8%	0.2%	99.2%	0.8%	100%	0%	99.9%	0.1%	100%	0%	Cc1cccc(-c2cc3nccc(Nc4cccc(O)c4)c3s2)c1 [BK40196]	significantly increased	–	–	–

Structure (SMILES)	inhibition at 10 µM (KIT (A829P))	remaining binding at 10 µM (KIT (A829P))	inhibition at 10 µM (KIT (D816V))	remaining binding at 10 µM (KIT (D816V))	inhibition at 10 µM (KIT (L576P))	remaining binding at 10 µM (KIT (L576P))	inhibition at 10 µM (KIT (V559D))	remaining binding at 10 µM (KIT (V559D))	inhibition at 10 µM (SRC)	remaining binding at 10 µM (SRC)	inhibition at 10 µM (FYN)	remaining binding at 10 µM (FYN)	number of immature MCs (CD117 only) compared to mature MCs (CD117 and FceR1) (LUVA cells)	ratio of immature MCs (CD117 only) to mature MCs (CD117 and FceR1) (mast cells (blood); 5 mg/kg intraperitoneal, p=0.03)	ratio of immature MCs (CD117 only) to mature MCs (CD117 and FceR1) (mast cells (blood); 25 mg/kg intraperitoneal, p=0.04)	ratio of immature MCs (CD117 only) to mature MCs (CD117 and FceR1) (mast cells (blood); 45 mg/kg intraperitoneal, p=0.07)
Cc1cccc(-c2cc3nccc(N4CCOCC4)c3s2)c1 [BK40197]	0%	100%	33%	67%	98.2%	1.8%	99.7%	0.35%	19%	81%	44%	56%	significantly increased	–	–	significantly increased
